Results on five compounds are retold here after patent US8344177B2, “Albumin binding molecules and uses thereof” (Philochem AG, priority 2006, dated 2013).

One data set addresses HSA (Homo sapiens, UniProt P02768). Briefly: Fluorescence polarisation with increasing amounts of HSA. It counts as binding. The following applies: 100 nM compound, PBS, 1 h at 25° C., read-out: dissociation constant. The procedure:
100 nM of 428-D-Lys-FAM, 622-D-Lys-FAM and, for comparison, of fluorescein and of phenethylamine-FAM were incubated with increasing amounts of HSA in PBS for 1 h at 25° C. The fluorescence polarization was determined by excitation at 485 nm and measurement at 535 nm.

A short description of data set [1]: Pharmacokinetic profile of 428-ε-Lys-α-NH-FITC vs. fluorescein in mice (LC/MS/MS of serum). The arrangement: species or system 129SV mice. The following applies: 129SV, mouse, in vivo. The procedure: The pharmacokinetic properties of conjugates of the invention are evaluated by injection of both said conjugate and the corresponding unconjugated agent (i.e. the agent that has not been modified by a compound of the invention) into mice and subsequent sampling of the conjugate and agent concentrations. Conjugate and agent concentrations are determined by Liquid Chromatography/Mass Spectrometry/Mass Spectrometry (LC-MS/MS) according to techniques known in the art.
100 μl of a 170 μM solution of fluorescein and of 428-ε-Lys-α-NH-FITC were injected into 2 pairs of immunocompetent 129SV mice.

Data set [2] can be described thus: Pharmacokinetic profiles of fluorescein and FAM derivatives in mouse (LC/MS/MS of plasma). The data set is classed as in vivo, 129SvPas mice. The following applies: for half-life: 129SvPas, mouse, in vivo, iv, 20 nmol. The procedure: In a further in vivo experiment, the pharmacokinetic properties of fluorescein, phenethylamine-FAM, 428-D-Lys-FAM, and 622-D-Lys-FAM were measured and compared. Clearance profiles for the four compounds differed distinctly (FIG. 14).
Pharmacokinetic analyses were performed under the Project Licenses 198/2005 of the Veterinaramt des Kantons Zürich (issued to Dario Neri). 129SvPas mice were injected into the tail vein with 20 nmol of fluorescein, Phenethylamine-FAM, 428-D-Lys-FAM, or 622-D-Lys-FAM dissolved in 100 μl of 100 mM Tris/HCl, 105 mM NaCl, pH 8.2 (2 mice each). 20-30 μl blood samples were taken from the vena saphena with EDTA coated capillaries (Sarstedt) 1, 5, 15, 30, 60, 120, 240, 360, 480 and 1440 minutes after injection and centrifuged. 5-10 μl of plasma were mixed with 40 μl of 0.1% trifluoroacetic acid and 200 μl of ethanol and incubated on ice for 1 hour. After one hour the samples were centrifuged to remove the precipitated proteins. The supernatant was dried under vacuum and subsequently redissolved in 50 μl of DMSO/H2O. 40 μl were injected into an LC/MS/MS system (Micromass Quattro micro API) and run on a linear gradient from in 0.1% HCOOH from 5% to 95% acetonitrile in ten minutes on a Waters XTerra MS C18 column ([…], 1×50 mm) while observing the daughter ions with m/z of 287.1 and 202.1 of the parent ion 333.1 for fluorescein, with m/z of 287.3 and 332.3 of the parent ion 480.2 for Phenethylamine-FAM, with m/z of 287.3, 377.2 and 505.2 of the parent ion 777.1 for 428-D-Lys-FAM, and with m/z of 287.3 and 505.4 of the parent ion 651.3 for 622-D-Lys-FAM. Comparing the area under the curve with a previously obtained dilution series of fluorescein and 428-D-Lys-FAM in plasma with identical sample preparation allowed the quantification of the molecules.

A short description of data set [3]: Fluorescein angiographic analysis of the retina (scanning-laser ophthalmoscopy). It counts as in vivo, C57BL/6 mice. To be noted: mice, 50 nmol i.v. The method, then: To obtain functional information on the imaging properties of 428-D-Lys-FAM, a fluorescein angiographic analysis of the retina was performed. Fluorescein and 428-D-Lys-FAM were injected i.v. into mice and pictures of the eye fundus taken at different time-points. The fluorescein angiographic pictures confirmed the results of the pharmacokinetic studies.
Scanning-laser opthalmoscopy imaging was performed with a Heidelberg Retina Angiograph (HRA I, Heidelberg Engineering, Germany), a confocal scanning-laser opthalmoscope, according to previously described procedures [see reference 39]. Briefly, wild-type C57BL/6 mice were anaesthetized with ketamine (66.7 mg/kg) and xylazine (11.7 mg./kg), and their pupils were dilated with tropicamide eye drops (Mydriaticum Stulln, Pharma Stulln, Germany). The HRA features two argon wavelengths (488 nm and 514 nm) in the short wavelength range and two infrared diode lasers (795 nm and 830 nm) in the long wavelength range. The laser wavelength of 488 nm was used for fluorescein angiography, with a barrier filter at 500 nm. Four mice each received either 50 nmol of fluorescein or 428-D-Lys-FAM dissolved in 100 μl of 100 mM Tris/HCl, 105 mM NaCl, pH 8.2 injected i.v. into the tail. […] In particular, the brightness value in this study was fixed so that the brightest image (428-D-Lys-FAM at 1 minute following injection) could be recorded without overexposure. […]

The conditions of data set [4]: high doses, bolus injection; depending on the patient group; cited from earlier work.
For data set [5] the following is noted: background, reference 2; cited from earlier work.
Data set [6] can be described thus: MRI analysis of major blood vessels of the brain. It counts as in vivo, C57/B16 mice. The following applies: mice, 1.2 μmol i.v. The procedure:
All animal experiments were carried out in strict adherence to the Swiss law for animal protection. MR measurements were performed on a Bruker PharmaScan 47/16 MR system (Bruker BioSpin GmbH) operating at 200 MHz using a circular cryogenic surface coil for signal transmission and reception. Mice were anesthetized with 1.4-1.5% isoflurane in air:O2 (4:1). Scout scans were performed to asses the anatomy of the animal. The shortening effect of both contrast agents DTPA-Gd and 428-D-Lys-β-Ala-DTPA-Gd on the longitudinal blood relaxation time (T1) was investigated in two C57/B16 mice. For this purpose, transverse cine 2D images were acquired using the following sequence parameters: field of view (FOV): 19×19×0.5 mm3, matrix size: 128×128, flip angle: 15°, TE/TR: 3.0/14 ms, averages: 6, repetitions: 50, temporal resolution: 10.75 s, total scan time: 8 min 57 s. The inflowing blood was saturated by exciting a 4 mm thick slice (flip angle15°) cranial to the imaging plane. Contrast agents were injected into the tail vein after a baseline of twenty repetitions. Firstly, a dose of 1.2 μmol of DTPA-Gd and secondly, after a wait time of 30 min, a dose of 1.2 μmol of 428-D-Lys-β-Ala-DTPA-Gd was administered. The time course of the MR signal was analyzed in a large vessel and normalized to the baseline value for comparison.

The target of another data set is albumin (Homo sapiens, UniProt P02768). To be noted: background statement; cited from earlier work.
Chain of albumin (P02768 25-609, species assumed): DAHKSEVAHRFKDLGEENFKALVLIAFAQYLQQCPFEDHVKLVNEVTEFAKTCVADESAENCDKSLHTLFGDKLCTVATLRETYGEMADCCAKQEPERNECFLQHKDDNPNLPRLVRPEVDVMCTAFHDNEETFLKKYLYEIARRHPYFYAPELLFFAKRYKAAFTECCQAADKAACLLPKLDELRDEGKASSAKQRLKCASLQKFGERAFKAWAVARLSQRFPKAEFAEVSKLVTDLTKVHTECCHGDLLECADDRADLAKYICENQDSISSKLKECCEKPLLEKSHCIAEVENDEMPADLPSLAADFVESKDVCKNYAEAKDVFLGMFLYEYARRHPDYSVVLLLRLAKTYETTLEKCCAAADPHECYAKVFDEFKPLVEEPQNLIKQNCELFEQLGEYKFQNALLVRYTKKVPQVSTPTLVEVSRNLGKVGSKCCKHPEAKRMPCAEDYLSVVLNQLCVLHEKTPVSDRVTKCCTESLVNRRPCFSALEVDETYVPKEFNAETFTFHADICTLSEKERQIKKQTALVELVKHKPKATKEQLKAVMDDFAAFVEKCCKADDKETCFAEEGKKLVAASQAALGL

Chain of HSA (P02768 25-609): as the sequence (P02768 25-609, species assumed) above

For orientation: half-life means the time needed for the level to fall by half in the phase considered. Lower therefore signals rapid decline. `O=C1OC2(c3ccc(O)cc3Oc3cc(O)ccc32)c2ccccc21` [fluorescein]: at HSA, the Kd turned out to be 76 µM. The results for the half-life in data set [1] and in data set [2] (t1/2 (monophasic profile)) were 12.5 min and 4.6 min, respectively. Besides, in data set [2] (mice, 20 nmol into the tail vein, plasma), the “time after injection at which no longer detectable” value is 30 min. Besides, the “time after which staining of the blood vessels not detectable” value in data set [3] was found to be 20 min. Besides, in data set [4], the “patients with nausea and vomit” value was “up to 20%”.

On to `COc1cccc2c1C(=O)c1c(O)c3c(c(O)c1C2=O)C[C@@](O)(/C(CO)=N/NC(=O)CCCCCN1C(=O)C=CC1=O)C[C@@H]3O[C@H]1C[C@H](N)[C@H](O)[C@H](C)O1` [DOXO-EMCH], for which, in data set [5], the “maximum tolerated dose relative to unmodified doxorubicin” value is 2-10 times.

Take `O=C(NCCc1ccccc1)c1ccc2c(c1)C(=O)OC21c2ccc(O)cc2Oc2cc(O)ccc21` [phenethylamine-FAM]: the Kd on HSA came to 17 µM. Besides, the half-life in data set [2] (t1/2, α) stood at 5 min; in data set [2] (t1/2, β) it was 53 min.

As to `O=C([O-])CN(CCN(CC(=O)[O-])CC(=O)O)CCN(CC(=O)[O-])CC(=O)O.[Gd+3]` [DTPA-Gd, Gadolinium (III)—diethyltriaminepentaacetic acid], the “extravasation observed by MRI” value in data set [6] is on record as “Rapid extravasation”.

With `C=CC1=C(C)/C(=C/c2[nH]c(Cc3[nH]c(/C=C4\NC(=O)C(C)=C4C=C)c(C)c3CCC(=O)O)c(CCC(=O)O)c2C)NC1=O` [bilirubin], the “affinity / dissociation constant to albumin (in words)” value on albumin was “nanomolar affinity”.
